Source: paper PMC8958511, “Development of Sulfamoylated 4-(1-Phenyl-1H-1,2,3-triazol-4-yl)phenol Derivatives as Potent Steroid Sulfatase Inhibitors for Efficient Treatment of Breast Cancer” (Journal of Medicinal Chemistry, 2022)
Several values for one entry are separate records, joined by “and”; a condition that tells them apart may be missing. Equal entries are not always repeated. Where two headings read alike, the source gives them in different places.

Columns and labels:
[1] = biological target: T1, STS activity in murine livers and tumors (Mus musculus, UniProt P50427); assay: determination of STS activity in murine livers and tumors of treated mice; conditions: for Residual STS activity [%] Liver: liver tissue of mice treated per os at 50 mg/kg b.w.; for Residual STS activity [%] Tumor: tumor tissue of mice treated per os at 50 mg/kg b.w.
T1 sequence (P50427 23-624): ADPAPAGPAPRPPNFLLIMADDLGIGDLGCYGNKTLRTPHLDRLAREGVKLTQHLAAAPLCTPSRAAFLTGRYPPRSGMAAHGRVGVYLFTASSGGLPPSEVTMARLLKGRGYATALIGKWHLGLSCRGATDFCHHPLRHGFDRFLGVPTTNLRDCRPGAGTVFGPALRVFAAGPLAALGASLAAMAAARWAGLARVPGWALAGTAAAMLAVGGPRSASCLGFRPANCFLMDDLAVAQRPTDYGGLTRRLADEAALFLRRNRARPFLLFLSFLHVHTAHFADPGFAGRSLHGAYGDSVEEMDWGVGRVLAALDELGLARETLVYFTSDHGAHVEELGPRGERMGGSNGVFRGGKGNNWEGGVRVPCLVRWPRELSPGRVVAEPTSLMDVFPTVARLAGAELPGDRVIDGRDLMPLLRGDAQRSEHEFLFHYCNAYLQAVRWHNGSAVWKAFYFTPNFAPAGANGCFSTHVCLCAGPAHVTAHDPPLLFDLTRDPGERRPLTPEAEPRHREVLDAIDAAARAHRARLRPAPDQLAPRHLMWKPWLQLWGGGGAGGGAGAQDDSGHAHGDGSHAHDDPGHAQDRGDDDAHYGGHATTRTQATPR
Protocol: Then, the samples were subjected to sonication in five cycles of 10 s each and centrifuged for 10 min at 14 000g to pellet the tissue debris. Total protein concentrations were determined in the obtained lysates using the Bradford method, and 100 μg of the total protein was used for each reaction as a source of STS activity. […] E1S (4 × 10^4 Bq, 3 nM) and 20 mM Tris-HCl, pH 7.4. The volume of the reaction mixtures was adjusted to 100 μL with water. After incubation, 60 μL of each reaction mixture was collected, and the product formed by STS hydrolysis was extracted with toluene (0.5 mL). STS activity was measured using a MicroBeta radioluminometer (PerkinElmer). Assays were carried out in triplicate.

[2] = format: in vivo; conditions: Table S1, MTD study, 50 mg/kg
Protocol: The mice were thus weighed, and their general health was observed. […] At the end of the study, the mice were sacrificed by dislocation of the cervical vertebrae, and the internal organs were examined macroscopically.
The mice were weighed, and their general health was observed. […] At the end of the MTD study, the autopsy was performed, and the internal organs (liver, kidney, and spleen) were weighed and macroscopically assessed.

STS in MCF-7 cells = biological target: T2, STS in MCF-7 cells (Homo sapiens, UniProt P08842); assay: radioisotope cellular assay with [3H]E1S in MCF-7 cells; format: cell-based; conditions: for remaining activity at 0.001 µM / remaining activity at 0.01 µM / remaining activity at 0.1 µM: MCF7, 20 h; for remaining activity at 0.001 µM: read-out: residual STS activity [%] 1 nM; for remaining activity at 0.01 µM: read-out: residual STS activity [%] 10 nM; for remaining activity at 0.1 µM: read-out: residual STS activity [%] 100 nM
T2 construct: The radioisotope cellular assay was performed using the MCF-7 cell line; endogenous in cells; host or cells: MCF-7
T2 sequence (P08842 22-583): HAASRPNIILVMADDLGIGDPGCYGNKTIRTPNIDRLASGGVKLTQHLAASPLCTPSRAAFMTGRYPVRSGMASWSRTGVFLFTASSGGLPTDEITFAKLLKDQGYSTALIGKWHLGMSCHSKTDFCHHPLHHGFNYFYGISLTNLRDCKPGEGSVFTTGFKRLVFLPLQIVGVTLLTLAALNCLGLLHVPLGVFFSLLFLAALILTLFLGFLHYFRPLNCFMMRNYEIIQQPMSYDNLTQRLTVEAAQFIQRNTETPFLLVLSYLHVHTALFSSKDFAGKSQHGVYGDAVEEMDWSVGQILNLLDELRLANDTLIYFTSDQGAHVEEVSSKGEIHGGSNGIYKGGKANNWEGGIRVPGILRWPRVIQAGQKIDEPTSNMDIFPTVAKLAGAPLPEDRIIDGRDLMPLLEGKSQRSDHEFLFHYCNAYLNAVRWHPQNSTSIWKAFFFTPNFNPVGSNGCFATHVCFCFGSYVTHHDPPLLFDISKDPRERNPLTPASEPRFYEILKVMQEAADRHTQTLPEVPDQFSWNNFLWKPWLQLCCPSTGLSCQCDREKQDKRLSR
Protocol: All compounds were initially tested for their in cell inhibitory action at a 100 nM concentration.
The inhibitory potency of the synthesized compounds was examined in two ways, including an enzymatic assay and the radioisotope cellular test. […] The radioisotope cellular assay was performed using the MCF-7 cell line in the presence of radiolabeled [^3H]E1S.
The evaluation of the inhibitory effect of each compound with breast cancer cells was performed using a previously described method (27) with some modifications. MCF-7 cells were maintained in Dulbecco’s modified Eagle medium supplemented with 10% fetal bovine serum and cultured in the above medium until 80% confluence. […] After incubation, the medium (0.45 mL) was collected from each well, and the product formed by STS hydrolysis was extracted with toluene (4 mL). STS activity was measured using a MicroBeta radioluminometer (PerkinElmer). Assays with MCF-7 cells were carried out in triplicate.

[3] = biological target: T3, STS isolated from the human placenta (Homo sapiens, UniProt P08842); assay: radioisotope enzymatic assay with STS isolated from human placenta and [3H]E1S; format: biochemical; conditions: for remaining activity at 0.5 µM: read-out: residual STS activity [%]; for residual STS activity [%]: 0.5 μM inhibitor concentration, substrate [3H]E1S, 3 nM, triplicate
T3 construct: radioisotope enzymatic assay using STS isolated from the human placenta; from tissue; host or cells: human placenta
T3 sequence (P08842 22-583): T2 sequence (P08842 22-583)
Protocol: The inhibitory potency of the synthesized compounds was examined in two ways, including an enzymatic assay and the radioisotope cellular test. The enzymatic assay was performed using the STS enzyme isolated from human placenta and using radiolabeled [^3H]E1S as a substrate.
The total volume of the reaction mixture was 100 μL. […] After incubation, the reaction mixture (90 μL) was collected from each well, and the product formed by STS hydrolysis was extracted with toluene (0.5 mL). STS activity was measured using a MicroBeta radioluminometer (PerkinElmer). Enzymatic assays were carried out in triplicate.

[4] = tested on: 67NR mouse mammary tumor cells; assay: antitumor activity in 67NR orthotopic mouse breast carcinoma model; format: in vivo, BALB/c mice; conditions: for body weight of treated tumor-bearing mice (observation) / tumor growth inhibition (TGI) / mice responded to the treatment / mice with much larger tumor than the mean control volume / mice with tumor volume reduced by approx. 50% compared to the TV control: 50 mg/kg b.w. per os; for tumor growth inhibition (TGI): 5 days a week, 67NR tumor, N = 9, vs control group; for mice responded to the treatment / mice with much larger tumor than the mean control volume / mice with tumor volume reduced by approx. 50% compared to the TV control: nine mice/group
Protocol: The tumor volume (TV) and body weight were measured three times a week. Results for individual groups are reported in Figure S5, Supporting Information. Based on TV data, the tumor growth inhibition (TGI) was calculated for groups that received compounds and compared to that of the control group. […] The body weight of the treated animals was monitored during the study, and the body weight change (BWC) index was calculated (Figure 4). […] Body weight loss was observed between D2 and D11 and reached 4.5% at most.
The growth of tumors has been observed.

[5] = blood morphology, blood biochemistry and organ weights of mice with 67NR tumor; conditions: for spleen weight: 50 mg/kg b.w. per os; for spleen weight / ALT / AST / creatinine / urea: mice with 67NR tumor; for HCT / HGB / MCH / MCHC / MCV / MPV / PCT / PDW / PLT / RBC / RDW: Table S2, mice with 67NR tumor, 50 mg/kg; for ALT / AST / creatinine / urea: Table S3, plasma, 50 mg/kg per os, N=9
Protocol: At the end of the study, the autopsy of the animals was performed: blood was collected for further analyses of the morphology (Table S2, Supporting Information) and biochemistry (Table S3 and Figure S6, Supporting Information) and for the determination of the plasma estradiol level using the ELISA method.
Mice were injected orthotopically (in the mammary gland fat pad) with 67NR mouse mammary tumor cells derived from in vitro culture (1.5 × 10^5 cells/0.05 mL Hanks fluid/mouse). The growth of tumors has been observed. […] Animals were observed during the next 17 days and euthanized. During observation, body weight and tumor growth were monitored three times a week. The volume of the tumors was calculated according to the following formula: TV = a^2·b/2 [mm^3], (where: a—width and b—length of the tumor). Blood, tumor tissue, and liver were harvested during autopsy for further analyses. Blood aliquots (about 500 μL) were collected in EDTA containing vials for morphology analysis (Mythic 18 analyzer, Orphee), and then, the plasma was collected (centrifuged at 2500g for 15 min at 4 °C within 1 h after collection) for biochemical parameter analysis (Cobas c111, Roche).

STS = tested on: STS; parameters: method as in earlier work; conditions: STS inhibitory effect, system not given; ref 14−16; cited from earlier work
[6] = MCF-7 cells, substrate [3H]E1S, 3 nM

Row | Structure (SMILES) | Residual STS activity [%] Liver [1] | Residual STS activity [%] Tumor [1] | GRAN [2] | HCT [2] | HGB [2] | LIMF [2] | MCH [2] | MCHC [2] | MCV [2] | MON [2] | PLT [2] | RBC [2] | RDW [2] | WBC [2] | remaining activity at 0.001 µM (STS in MCF-7 cells) | remaining activity at 0.01 µM (STS in MCF-7 cells) | remaining activity at 0.1 µM (STS in MCF-7 cells) | IC50 (STS in MCF-7 cells; [6]) | remaining activity at 0.5 µM [3] | mice responded to the treatment [4] | other results
1 | NS(=O)(=O)Oc1ccc(-c2cn(-c3cccc(Cl)c3)nn2)cc1 [4a, 4-(1-(3-Chlorophenyl)-1H-1,2,3-triazol-4-yl)phenyl Sulfamate] | 12,1% | 5,8% | 13,2±3,6% | 41±0,2% | 15,1±0,2 g/dL | 83,5±4,1% | 17,3±0,3 pg | 36,9±0,5 g/dL | 46,8±0,2 fL | 3,3±0,6% | 518±49 10x3/uL | 8,8±0,1 10x6/uL | 17,9±0,6% | 4,5±0,3 10x3/uL | 38.2% | 28.1 ± 1.12% | 2.4 ± 0.07% | 1.9 ± 0.06 nM | 19.5 ± 0.97% | 7 mice | body weight of treated tumor-bearing mice (observation) [4]: A body weight increase was observed; tumor growth inhibition (TGI) [4]: 47%; mice with much larger tumor than the mean control volume [4]: 1 mice; mice with tumor volume reduced by approx. 50% compared to the TV control [4]: 5 mice; spleen weight [5]: Significantly smaller spleens weights; HCT [5]: 35,9±3,2%; HGB [5]: 13,5±1,1 g/dL; MCH [5]: 17,7±0,5 pg; MCHC [5]: 37,6±0,7 g/dL; MCV [5]: 47,1±1 fL; MPV [5]: 4,9±0,1 fL; PCT [5]: 0,250±0,03%; PDW [5]: 24,9±3 fL; PLT [5]: 503,3±59,8 x103/uL; RBC [5]: 7,6±0,8 x106/uL; RDW [5]: 18±0,5%; ALT [5]: 27,3±3,9 U/L; AST [5]: 91,7±15,4 U/L; creatinine [5]: 5,75±1,52 umol/L; urea [5]: 7,92±0,66 mmol/L
2 | NS(=O)(=O)Oc1ccc(-c2cn(-c3cc(Cl)cc(Cl)c3)nn2)cc1 [4b, 4-(1-(3,5-Dichlorophenyl)-1H-1,2,3-triazol-4-yl)phenyl Sulfamate] | 14,5% | 5,1% | 11,0±1,7% | 44,1±1,3% | 16,4±0,6 g/dL | 85,7±1,7% | 17,4±0,01 pg | 37,1±0,4 g/dL | 46,9±0,5 fL | 3,3±0,5% | 533±34 10x3/uL | 9,4±0,4 10x6/uL | 17,5±0,6% | 5,1±1,6 10x3/uL | 63.7 ± 2.55% | 17.8 ± 0.62% | 2 ± 0.1% | 1.71 ± 0.05 nM | 13.3% | 7 mice | residual STS activity [%] [3]: 13.32 ± 0.67%; side effects and toxicity ([4]; 50 mg/kg): no evidence of side effects and toxicity; body weight of treated tumor-bearing mice (observation) [4]: A body weight increase was observed; mice with tumor volume reduced by approx. 50% compared to the TV control [4]: 5 mice; spleen weight [5]: Significantly smaller spleens weights; HCT [5]: 36,6±2,7%; HGB [5]: 13,7±0,9 g/dL; MCH [5]: 17,6±0,5 pg; MCHC [5]: 37,6±0,6 g/dL; MCV [5]: 46,8±0,9 fL; MPV [5]: 4,9±0,2 fL; PCT [5]: 0,248±0,03%; PDW [5]: 27,1±3,2 fL; PLT [5]: 512,2±72,3 x103/uL; RBC [5]: 7,8±0,7 x106/uL; RDW [5]: 18,2±0,5%; ALT [5]: 27,1±3,8 U/L; AST [5]: 86,6±18,5 U/L; creatinine [5]: 4,53±1,48 umol/L; urea [5]: 6,94±0,69 mmol/L
3 | NS(=O)(=O)Oc1ccc(-c2cn(-c3cccc(F)c3)nn2)cc1 [5g] | 13,6% | 5,2% | 12,4±1,7% | 41,1±0,5% | 15,2±0,2 g/dL | 84,3±2,3% | 17,2±0,2 pg | 36,7±0,2 g/dL | 46,9±0,3 fL | 3,4±0,6% | 522±33 10x3/uL | 8,8±0,01 10x6/uL | 17,4±0,3% | 4,9±1,3 10x3/uL | 57.3 ± 3.44% | 1% | 1 ± 0.04% | 1.69 ± 0.08 nM | 37.9 ± 1.9% | 8 mice | tumor growth inhibition (TGI) [4]: 42%; mice with tumor volume reduced by approx. 50% compared to the TV control [4]: 5 mice; spleen weight [5]: Significantly smaller spleens weights; HCT [5]: 35±2,4%; HGB [5]: 13,5±0,9 g/dL; MCH [5]: 18,3±0,9 pg; MCHC [5]: 38,6±0,6 g/dL; MCV [5]: 47,4±2,8 fL; MPV [5]: 5±0,1 fL; PCT [5]: 0,255±0,04%; PDW [5]: 26,9±4,8 fL; PLT [5]: 508,6±69 x103/uL; RBC [5]: 7,4±0,7 x106/uL; RDW [5]: 19,1±1,5%; AST [5]: 102,2±23,1 U/L; creatinine [5]: 6,51±1,49 umol/L; urea [5]: 8,83±1,32 mmol/L
4 | NS(=O)(=O)Oc1ccc(-c2cn(-c3cc(F)cc(F)c3)nn2)cc1 [5l, 4-(1-(3,5-difluorophenyl)-1H-1,2,3-triazol-4-yl)phenyl sulfamate] | 10,1% | 1,3% | 10,6±0,2% | 42±1,9% | 15,4±0,5 g/dL | 86,6±0,2% | 17,3±0,1 pg | 36,6±0,4 g/dL | 47,2±0,2 fL | 2,9±0,4% | 596±64 10x3/uL | 8,9±0,4 10x6/uL | 17,3±0,2% | 4,2±0,6 10x3/uL | 13.6% | 1% | 1% | 0.21 ± 0.01 nM | 17.3% | 8 mice | residual STS activity [%] [3]: 17.34 ± 0.87%; tumor growth inhibition (TGI) [4]: 39%; mice with much larger tumor than the mean control volume [4]: 1 mice; mice with tumor volume reduced by approx. 50% compared to the TV control [4]: 3 mice; spleen weight [5]: Significantly smaller spleens weights; HCT [5]: 34,7±2,1%; HGB [5]: 13,3±0,8 g/dL; MCH [5]: 17,8±0,3 pg; MCHC [5]: 38,3±0,4 g/dL; MCV [5]: 46,4±0,7 fL; PCT [5]: 0,233±0,035%; PDW [5]: 29,3±4,6 fL; PLT [5]: 463,1±74 x103/uL; RBC [5]: 7,5±0,5 x106/uL; RDW [5]: 18,4±1%; creatinine [5]: 5,6±1,65 umol/L; urea [5]: 8,1±0,7 mmol/L
5 | NS(=O)(=O)Oc1ccc2c3c(c(=O)oc2c1)CCCCC3 [Irosustat, reference compound] | – | – | – | – | – | – | – | – | – | – | – | – | – | – | – | – | – | – | – | – | IC50 (STS): 8 nM; residual STS activity [%] 1 nM (STS in MCF-7 cells; MCF-7 cells, 1 nM inhibitor, substrate [3H]E1S, 3 nM, triplicate): 16.8% and 16.8 ± 0.5%; residual STS activity [%] 10 nM (STS in MCF-7 cells; MCF-7 cells, 10 nM inhibitor, substrate [3H]E1S, 3 nM, triplicate): 12.9% and 12.9 ± 0.77%; residual STS activity [%] 100 nM (STS in MCF-7 cells; MCF-7 cells, 100 nM inhibitor, substrate [3H]E1S, 3 nM, triplicate): 2.4% and 2.4 ± 0.07%
